According to ChEMBL document CHEMBL3885881, “DrugMatrix”:

Organism: Rattus norvegicus
Test: DrugMatrix - Regimen: Daily Repeat
Format: toxicity, organism-based, Sprague-Dawley
Parameters: regimen Daily Repeat, gender Male, age 6-8 weeks
Settings: in vivo, po, route oral GAVAGE, […]; for ABSOLUTE BASOPHIL / ABSOLUTE EOSINOPHIL / ABSOLUTE LYMPHOCYTE / ABSOLUTE MONOCYTE / ABSOLUTE SEGMENTED NEUTROPHIL / BASOPHIL / EOSINOPHIL / ERYTHROCYTE COUNT / HEMATOCRIT / HEMOGLOBIN / LEUKOCYTE COUNT / LYMPHOCYTE / MEAN CORPUSCULAR HEMOGLOBIN / MEAN CORPUSCULAR HEMOGLOBIN CONCENTRATION / MEAN CORPUSCULAR VOLUME / MONOCYTE / NEUTROPHIL / NUCLEATED RED BLOOD CELLS / PLATELET COUNT: tissue Blood; for ALANINE AMINOTRANSFERASE / ALBUMIN / ALKALINE PHOSPHATASE / ASPARTATE AMINOTRANSFERASE / BLOOD UREA NITROGEN / CARBON DIOXIDE / CHLORIDE / CHOLESTEROL / CREATINE PHOSPHOKINASE / CREATININE / GLUCOSE / LACTATE DEHYDROGENASE / LIPASE / PHOSPHORUS / POTASSIUM / SODIUM / TOTAL BILIRUBIN / TOTAL PROTEIN / URIC ACID: tissue Plasma
[1] = 0 mg/kg, 72 h, dose level Control, time 3 day
[2] = 0 mg/kg, 120 h, dose level Control, time 5 day
[3] = 15 mg/kg, 72 h, dose level Low, time 3 day
[4] = 15 mg/kg, 120 h, dose level Low, time 5 day

SMILES: CC(C)C(=O)Nc1ccc([N+](=O)[O-])c(C(F)(F)F)c1 [FLUTAMIDE]
- ABSOLUTE BASOPHIL [1]: 0 CELLS/uL
- ABSOLUTE EOSINOPHIL [1]: 13.67 CELLS/uL
- ABSOLUTE LYMPHOCYTE [1]: 10069.5 CELLS/uL
- ABSOLUTE MONOCYTE [1]: 50 CELLS/uL
- ABSOLUTE SEGMENTED NEUTROPHIL [1]: 516.83 CELLS/uL
- BASOPHIL [1]: 0%
- EOSINOPHIL [1]: 0.17%
- ERYTHROCYTE COUNT [1]: 5.44 x10E6/uL
- HEMATOCRIT [1]: 33.88%
- HEMOGLOBIN [1]: 13.23 G/DL
- LEUKOCYTE COUNT [1]: 10.65 x10E3/uL
- LYMPHOCYTE [1]: 94.67%
- MEAN CORPUSCULAR HEMOGLOBIN [1]: 24.37 pg
- MEAN CORPUSCULAR HEMOGLOBIN CONCENTRATION [1]: 39.05 G/DL
- MEAN CORPUSCULAR VOLUME [1]: 62.38 fL
- MONOCYTE [1]: 0.67%
- NEUTROPHIL [1]: 4.5%
- NUCLEATED RED BLOOD CELLS [1]: 0.33 /100WBC
- PLATELET COUNT [1]: 414.5 x10E3/uL
- ALANINE AMINOTRANSFERASE [1]: 72 u/L
- ALBUMIN [1]: 3.75 G/DL
- ALKALINE PHOSPHATASE [1]: 375 u/L
- ASPARTATE AMINOTRANSFERASE [1]: 87.5 u/L
- BLOOD UREA NITROGEN [1]: 14 mg/dL
- CARBON DIOXIDE [1]: 27.5 mmol/L
- CHLORIDE [1]: 95.83 MEQ/L
- CHOLESTEROL [1]: 68.5 mg/dL
- CREATINE PHOSPHOKINASE [1]: 284.33 u/L
- CREATININE [1]: 0.16 mg/dL
- GLUCOSE [1]: 156.67 mg/dL
- LACTATE DEHYDROGENASE [1]: 101.83 u/L
- LIPASE [1]: 9.67 u/L
- PHOSPHORUS [1]: 10.33 mg/dL
- POTASSIUM [1]: 5.22 MEQ/L
- SODIUM [1]: 137.67 MEQ/L
- TOTAL BILIRUBIN [1]: 0.13 mg/dL
- TOTAL PROTEIN [1]: 5.43 G/DL
- URIC ACID [1]: 0.8 mg/dL
- ABSOLUTE BASOPHIL [2]: 0 CELLS/uL
- ABSOLUTE EOSINOPHIL [2]: 20.67 CELLS/uL
- ABSOLUTE LYMPHOCYTE [2]: 11518.33 CELLS/uL
- ABSOLUTE MONOCYTE [2]: 47 CELLS/uL
- ABSOLUTE SEGMENTED NEUTROPHIL [2]: 614 CELLS/uL
- BASOPHIL [2]: 0%
- EOSINOPHIL [2]: 0.17%
- ERYTHROCYTE COUNT [2]: 5.61 x10E6/uL
- HEMATOCRIT [2]: 34.25%
- HEMOGLOBIN [2]: 13.38 G/DL
- LEUKOCYTE COUNT [2]: 12.2 x10E3/uL
- LYMPHOCYTE [2]: 94.33%
- MEAN CORPUSCULAR HEMOGLOBIN [2]: 23.83 pg
- MEAN CORPUSCULAR HEMOGLOBIN CONCENTRATION [2]: 39.08 G/DL
- MEAN CORPUSCULAR VOLUME [2]: 61.03 fL
- MONOCYTE [2]: 0.33%
- NEUTROPHIL [2]: 5.17%
- NUCLEATED RED BLOOD CELLS [2]: 0 /100WBC
- PLATELET COUNT [2]: 941.83 x10E3/uL
- ALANINE AMINOTRANSFERASE [2]: 68.83 u/L
- ALBUMIN [2]: 4.12 G/DL
- ALKALINE PHOSPHATASE [2]: 492.67 u/L
- ASPARTATE AMINOTRANSFERASE [2]: 83.33 u/L
- BLOOD UREA NITROGEN [2]: 14 mg/dL
- CARBON DIOXIDE [2]: 37 mmol/L
- CHLORIDE [2]: 98.67 MEQ/L
- CHOLESTEROL [2]: 56.5 mg/dL
- CREATINE PHOSPHOKINASE [2]: 167.33 u/L
- CREATININE [2]: 0.17 mg/dL
- GLUCOSE [2]: 157.5 mg/dL
- LACTATE DEHYDROGENASE [2]: 104.83 u/L
- LIPASE [2]: 10 u/L
- PHOSPHORUS [2]: 10.43 mg/dL
- POTASSIUM [2]: 5.46 MEQ/L
- SODIUM [2]: 143.87 MEQ/L
- TOTAL BILIRUBIN [2]: 0.17 mg/dL
- TOTAL PROTEIN [2]: 5.72 G/DL
- URIC ACID [2]: 0.85 mg/dL
- ABSOLUTE BASOPHIL [3]: 0 CELLS/uL
- ABSOLUTE EOSINOPHIL [3]: 10.67 CELLS/uL
- ABSOLUTE LYMPHOCYTE [3]: 6470.33 CELLS/uL
- ABSOLUTE MONOCYTE [3]: 86 CELLS/uL
- ABSOLUTE SEGMENTED NEUTROPHIL [3]: 599.67 CELLS/uL
- BASOPHIL [3]: 0%
- EOSINOPHIL [3]: 0.33%
- ERYTHROCYTE COUNT [3]: 5.25 x10E6/uL
- HEMATOCRIT [3]: 32.9%
- HEMOGLOBIN [3]: 13.03 G/DL
- LEUKOCYTE COUNT [3]: 7.17 x10E3/uL
- LYMPHOCYTE [3]: 91.67%
- MEAN CORPUSCULAR HEMOGLOBIN [3]: 24.87 pg
- MEAN CORPUSCULAR HEMOGLOBIN CONCENTRATION [3]: 39.6 G/DL
- MEAN CORPUSCULAR VOLUME [3]: 62.8 fL
- MONOCYTE [3]: 1%
- NEUTROPHIL [3]: 7%
- NUCLEATED RED BLOOD CELLS [3]: 0 /100WBC
- PLATELET COUNT [3]: 851.33 x10E3/uL
- ALANINE AMINOTRANSFERASE [3]: 92 u/L
- ALBUMIN [3]: 3.97 G/DL
- ALKALINE PHOSPHATASE [3]: 441.67 u/L
- ASPARTATE AMINOTRANSFERASE [3]: 111 u/L
- BLOOD UREA NITROGEN [3]: 12.33 mg/dL
- CARBON DIOXIDE [3]: 27.67 mmol/L
- CHLORIDE [3]: 95.5 MEQ/L
- CHOLESTEROL [3]: 77.67 mg/dL
- CREATINE PHOSPHOKINASE [3]: 476.67 u/L
- CREATININE [3]: 0.33 mg/dL
- GLUCOSE [3]: 152 mg/dL
- LACTATE DEHYDROGENASE [3]: 156.33 u/L
- LIPASE [3]: 13.67 u/L
- PHOSPHORUS [3]: 9.97 mg/dL
- POTASSIUM [3]: 5.27 MEQ/L
- SODIUM [3]: 138.85 MEQ/L
- TOTAL BILIRUBIN [3]: 0.17 mg/dL
- TOTAL PROTEIN [3]: 5.23 G/DL
- URIC ACID [3]: 0.7 mg/dL
- ABSOLUTE BASOPHIL [4]: 0 CELLS/uL
- ABSOLUTE EOSINOPHIL [4]: 0 CELLS/uL
- ABSOLUTE LYMPHOCYTE [4]: 8137.67 CELLS/uL
- ABSOLUTE MONOCYTE [4]: 25 CELLS/uL
- ABSOLUTE SEGMENTED NEUTROPHIL [4]: 504 CELLS/uL
- BASOPHIL [4]: 0%
- EOSINOPHIL [4]: 0%
- ERYTHROCYTE COUNT [4]: 6.06 x10E6/uL
- HEMATOCRIT [4]: 36.17%
- HEMOGLOBIN [4]: 13.93 G/DL
- LEUKOCYTE COUNT [4]: 8.67 x10E3/uL
- LYMPHOCYTE [4]: 94%
- MEAN CORPUSCULAR HEMOGLOBIN [4]: 23.03 pg
- MEAN CORPUSCULAR HEMOGLOBIN CONCENTRATION [4]: 38.53 G/DL
- MEAN CORPUSCULAR VOLUME [4]: 59.7 fL
- MONOCYTE [4]: 0.33%
- NEUTROPHIL [4]: 5.67%
- NUCLEATED RED BLOOD CELLS [4]: 0 /100WBC
- PLATELET COUNT [4]: 1066.67 x10E3/uL
- ALANINE AMINOTRANSFERASE [4]: 57 u/L
- ALBUMIN [4]: 4.03 G/DL
- ALKALINE PHOSPHATASE [4]: 326.67 u/L
- ASPARTATE AMINOTRANSFERASE [4]: 78 u/L
- BLOOD UREA NITROGEN [4]: 13.33 mg/dL
- CARBON DIOXIDE [4]: 35.67 mmol/L
- CHLORIDE [4]: 99.33 MEQ/L
- CHOLESTEROL [4]: 75 mg/dL
- CREATINE PHOSPHOKINASE [4]: 234.33 u/L
- CREATININE [4]: 0.18 mg/dL
- GLUCOSE [4]: 140 mg/dL
- LACTATE DEHYDROGENASE [4]: 135.33 u/L
- LIPASE [4]: 9.67 u/L
- PHOSPHORUS [4]: 10.43 mg/dL
- POTASSIUM [4]: 5.86 MEQ/L
- SODIUM [4]: 143.57 MEQ/L
- TOTAL BILIRUBIN [4]: 0.23 mg/dL
- TOTAL PROTEIN [4]: 5.83 G/DL
- URIC ACID [4]: 0.67 mg/dL
